# From publication PMC5321741, “Arylmethylamino steroids as antiparasitic agents” (Nature Communications, 2017)
# Key:
# [1] = system: Penicillium notatum JMRC:STI:50164; experiment: agar diffusion inhibition zone test; format: cell-based; conditions: 1o, 2o 1,000 µg/ml in DMSO; amphotericin B 10 µg/ml; solvent DMSO 13p
# Experimental: (§1) The following organisms were tested at the Hans Knöll Institute in Jena, for their susceptibility to the compounds 1o and 2o: Bacillus subtilis JMRC:STI:10880, Staphylococcus aureus JMRC:ST:10760, Escherichia coli JMRC:ST:33699, Pseudomonas aeruginosa JMRC:ST:33772, Pseudomonas aeruginosa JMRC:ST:337721, Staphylococcus aureus JMRC:ST:33793 (multi-resistant), Enterococcus faecalis JMRC:ST:33700 (Vancomycin-resistant), Mycobacterium vaccae JMRC:STI:10670, Sporobolomyces salmonicolor (Basidiomycetes yeast) JMRC:ST:35974, Candida albicans (Ascomycetes yeast) JMRC:STI:25000, Penicillium notatum JMRC:STI:50164.
# (§2) The bacteria were propagated in Mueller Hinton Broth (Oxoid)[49]. Yeast was propagated in YPD (yeast extract peptone dextrose): 1% yeast extract, 10 g; 2% peptone, 20 g; 2% agar, 20 g; 2% dextrose (glucose), 20 g; Sigma-Y1375. All bacteria and yeast suspensions were freshly made. The cultures were incubated at 37 °C for 16 h. Afterwards, the bacteria concentration from each culture was determined, and 34 ml of nutrient agar was loaded with 10^7 cells. These cultures were stored at 6-8 °C and could be used for seven days for the preparation of test plates. 34 ml of nutrient agar was liquefied and inoculated with the calculated amount of inoculum bacteria suspension at 48–50 °C, a temperature suitable for vegetative forms of bacteria. The inoculated nutrient media (34 ml each) were immediately poured into the prepared test plates (3 mm layer). With a punching device, 12 holes per test plate were punched out. For inhibiting bacterial growth, ciprofloxacin was used as a reference substance. The test substances were dissolved in distilled water, and 5 μg ml^−1 and 50 μl was added to each bacterial culture. For inhibition of fungal growth, amphotericin B served as the reference substance. The test substances were diluted to 10 μg ml^−1 in DMSO/methanol; 50 μl was added to each culture.
# (§3) Configuring the test plate; volumes/punched hole: 50 μl; test solutions/test plate: 1 × 50 μl reference substance. Test plates were cultivated for 18 h at 37 °C. Analysis: Reading the inhibition zones (IZ): As IZ, the zone in which no growth can be determined with the naked eye is measured; the tiniest colonies on the edge of the inhibition zone were therefore not taken into consideration. The diameter (φ) of the IZ is measured in mm. The analysis of IZ φ is carried out internationally with the help of statistic procedures, especially regression analysis. With each test approach, the reference substance was brought along as a control; if there were deviations from allowed IZ φ, the test was repeated.
# (§4) The inhibition of bacterial growth was determined using bacterial cultures grown in Müller-Hinton Bouillon, which was configured at barely visible opacity with the McFarland Standard Nr. 0.5, which indicates a bacterial density of 10^8 ml^−1. This bacterial suspension was diluted with Müller-Hinton Bouillon using 2-fold dilution series in the agar diffusion test.
# (§5) Analysis: The growth in the inhibition zones around the holes containing active substances is thereby compared with the growth in the growth control (no active substance). Bacterial growth was determined according to four measurements: p=presence of colonies in the inhibition zone, P=presence of many colonies in the inhibition zone, A=indication of inhibition, F=facilitation.
# [2] = system: Candida albicans JMRC:STI:25000; experiment: agar diffusion inhibition zone test; format: cell-based; conditions: 1o, 2o 1,000 µg/ml in DMSO, amphotericin B 10 µg/ml, solvent DMSO 0, read-out: inhibition zone diameter, Candida albicans (H8)
# Experimental: as §1, §2, §3, §4, §5
# [3] = system: Sporobolomyces salmonicolor JMRC:ST:35974; experiment: agar diffusion inhibition zone test; format: cell-based; conditions: 1o, 2o 1,000 µg/ml in DMSO; amphotericin B 10 µg/ml; solvent DMSO 20p
# Experimental: as §1, §2, §3, §4, §5
# [4] = system: Arthroderma benhamiae JMRC:ST:35888; experiment: spore inhibition test; format: cell-based; conditions: 72 h; start concentration 1 mg/ml (1o, 2o), 100 µg/ml (Amphotericin B)
# Experimental: (§6) The following test organisms were used for their susceptibility to compounds 1o and 2o: Alternaria alternata JMRC:SF:09317, Arthroderma benhamiae JMRC:ST:35888, Aspergillus fumigatus JMRC:Afum:00073=ATCC 46645, Aspergillus terreus JMRC:SF:06307, Candida albicans JMRC:ST:35864, Lichtheimia corymbifera JMRC:SF:09682, Penicillium chrysogenum JMRC:SF:10137, Rhizopus arrhizus (syn. R. oryzae) JMRC:SF:05857=ATCC 56536, CBS 112.07.
# (§7) Fungi were grown on 3% malt extract solidified medium for 1 to 2 weeks at room temperature. Then the plates were washed with 7 ml sterile distilled water, and the spore suspension was filtered through 4 layers of sterile Miracloth (Kalbiochem, USA) to remove the hyphae. The concentration of the spore suspension was set to 2 × 10^4 conidia ml^−1 for the in vitro assays.
# (§8) The spore inhibition assay took place in 96-well microplates (flat base). 50 μl of the prepared spore suspension was seeded and then mixed with 50 μl of the respective inhibitor substance. Tests were started with end concentrations of 1 mg ml^−1 and were then reduced in a minimum of 10 halving steps. Thus a 2 mg ml^−1 stock solution diluted in half ten times with solvent (distilled water, 2% DMSO in distilled water, or 2% DMF in distilled water) and each 50 μl was transferred to 50 μl spore suspension. For each test substance, 12 holes on the microtiter plate were filled. After 24 h incubation (25 °C), the germination of the spores was macroscopically and microscopically examined directly in the microtiter plate via measurement of the optical density and light microscopy using an inverse stereomicroscope with subsequent photodocumentation, respectively. If necessary, the plates were further incubated for another 24 or 48 h, depending on the extent of fungal germination.
# [5] = system: Aspergillus terreus JMRC:SF:06307; experiment: spore inhibition test; format: cell-based; conditions: 48 h; start concentration 1 mg/ml (1o, 2o), 100 µg/ml (Amphotericin B)
# Experimental: as §6, §7, §8
# [6] = system: Aspergillus fumigatus JMRC:Afum:00073; experiment: spore inhibition test; format: cell-based; conditions: 48 h; start concentration 1 mg/ml (1o, 2o), 100 µg/ml (Amphotericin B)
# Experimental: as §6, §7, §8
# [7] = system: Lichtheimia corymbifera JMRC:SF:09682; experiment: spore inhibition test; format: cell-based; conditions: 48 h; start concentration 1 mg/ml (1o, 2o), 100 µg/ml (Amphotericin B)
# Experimental: as §6, §7, §8
# [8] = system: Candida albicans JMRC:ST:35864; experiment: spore inhibition test; format: cell-based; conditions: 48 h; start concentration 1 mg/ml (1o, 2o), 100 µg/ml (Amphotericin B)
# Experimental: as §6, §7, §8
# [9] = system: Alternaria alternata JMRC:SF:09317; experiment: spore inhibition test; format: cell-based; conditions: 48 h; start concentration 1 mg/ml (1o, 2o), 100 µg/ml (Amphotericin B)
# Experimental: as §6, §7, §8
# [10] = system: Penicillium chrysogenum JMRC:SF:10137; experiment: spore inhibition test; format: cell-based; conditions: 48 h; start concentration 1 mg/ml (1o, 2o), 100 µg/ml (Amphotericin B)
# Experimental: as §6, §7, §8
# [11] = system: Rhizopus arrhizus (syn. R. oryzae) JMRC:SF:05857; experiment: spore inhibition test; format: cell-based; conditions: 48 h; start concentration 1 mg/ml (1o, 2o), 100 µg/ml (Amphotericin B)
# Experimental: as §6, §7, §8
# parasitaemia = system: parasitaemia; design: method as in Baragana et al Nature, 2015,522,315; conditions: at 0.57 mg/kg; ref Baragana et al Nature, 2015,522,315; cited from earlier work
# [12] = system: adult Schistosoma mansoni; conditions: no longer toxic at 1 μM; cited from earlier work
# [13] = system: hepatic cell line (HepG2); experiment: cytotoxicity on hepatic cell line (literature); format: cell-based
# [14] = system: hepatic cell line (HepG2); conditions: cited from earlier work
smiles,measurement,setting,value
"C[C@@H]1[C@H](O)[C@@H](C)/C=C/C=C/C=C/C=C/C=C/C=C/C=C/[C@H](O[C@@H]2O[C@H](C)[C@@H](O)[C@H](N)[C@@H]2O)C[C@@H]2O[C@](O)(C[C@@H](O)C[C@@H](O)[C@H](O)CC[C@@H](O)C[C@@H](O)CC(=O)O[C@H]1C)C[C@H](O)[C@H]2C(=O)O [Amphotericin B, amphotericin B, reference compound]","inhibition zone diameter, Penicillium notatum (P1)",[1],19p
same,zone of inhibition at 10 µg/mL,[2],21 mm
same,"inhibition zone diameter, Sporobolo. salmonicolor (H4)",[3],18p
same,"antifungal profile, 1st value = microscopic visualization-based observation, Arthroderma benhamiae",[4],3.12
same,"antifungal profile, 2nd value = optical density-based observation, Arthroderma benhamiae",[4],0.2
same,"antifungal profile, 1st value = microscopic visualization-based observation, Aspergillus terreus",[5],50
same,"antifungal profile, 2nd value = optical density-based observation, Aspergillus terreus",[5],0.2
same,"antifungal profile, 1st value = microscopic visualization-based observation, Aspergillus fumigatus",[6],3.12
same,"antifungal profile, 2nd value = optical density-based observation, Aspergillus fumigatus",[6],0.4
same,"antifungal profile, 1st value = microscopic visualization-based observation, Lichtheimia corymbifera",[7],< 0.05
same,"antifungal profile, 2nd value = optical density-based observation, Lichtheimia corymbifera",[7],< 0.05
same,"antifungal profile, 1st value = microscopic visualization-based observation, Candida albicans",[8],0.4
same,"antifungal profile, 2nd value = optical density-based observation, Candida albicans",[8],0.2
same,"antifungal profile, 1st value = microscopic visualization-based observation, Alternaria alternata",[9],0.78
same,"antifungal profile, 2nd value = optical density-based observation, Alternaria alternata",[9],0.1
same,"antifungal profile, 1st value = microscopic visualization-based observation, Penicillium chrysogenum",[10],100
same,"antifungal profile, 2nd value = optical density-based observation, Penicillium chrysogenum",[10],1.56
same,"antifungal profile, 1st value = microscopic visualization-based observation, Rhizopus arrhizus",[11],25
same,"antifungal profile, 2nd value = optical density-based observation, Rhizopus arrhizus",[11],1.56
O=C(NCCN1CCCC1)c1cc(-c2ccc(CN3CCOCC3)cc2)nc2ccc(F)cc12 [DDD107498],reduction in parasitaemia,parasitaemia,90%
O=C(C1CCCCC1)N1CC(=O)N2CCc3ccccc3C2C1 (stereo not drawn) [praziquantel],concentration toxic for schistosomes in vitro,[12],5 to 10 µM
same,selectivity index,[13]; HepG2 IC50 with respect to adult worms treated in vitro with 5 µM,33
same,selectivity index,[13]; HepG2 IC50 with respect to adult worms treated in vitro with 10 µM,16.5
same,IC50,[14],165 µM
